For the data set the following is noted: Liquid; for Critical pressure: Direct measurement; for Critical temperature: Visual observation in an unstirred cell.

± gives the expanded uncertainty stated by the source.

As for `COC(C)(C)C` [2-methoxy-2-methylpropane], the Critical pressure came out at 3448 ± 30 kPa and the Critical temperature worked out at 497 ± 2.4 K.

Consider `C1CCCCC1` [cyclohexane], for which the Critical pressure is recorded as 4110 ± 30 kPa and the Critical temperature was determined as 554.1 ± 2.4 K.

Take `CCO` [ethanol]: the Critical pressure turned out to be 6135 ± 30 kPa and the Critical temperature is on record as 514.2 ± 2.4 K.

With `CCCCCCC` [heptane], the Critical pressure was 2761 ± 30 kPa and the Critical temperature is 540 ± 2.4 K.

As to `CCCCCC` [hexane], the Critical pressure was 3030 ± 30 kPa and the Critical temperature stood at 507.9 ± 2.4 K.

For the compound `CO` [methanol], the Critical pressure worked out at 8128 ± 30 kPa and the Critical temperature is reported as 512.3 ± 2.4 K.

Turning to `CCCO` [propan-1-ol], the Critical pressure is reported as 5172 ± 30 kPa and the Critical temperature amounted to 537 ± 2.4 K.

The values are drawn from the NIST ThermoML archive (doi:10.1016/j.jct.2013.03.002).
